US20240148821A1, “PHARMACEUTICAL USE OF CYCLIC PEPTIDE COMPOUND” (CHUGAI SEIYAKU KABUSHIKI KAISHA, priority 2021, published 2024)
pIC50: −log10 of the molar value. Read-outs that look alike come from different tables or passages of the source. Bridge positions count the residues as written; N and C are the ends. Square brackets hold non-standard residues; d marks the D form. Peptide text beside a SMILES is read from it. hPhe(3,5-F2-4-CF3) = N[C@@H](CCc1cc(F)c(C(F)(F)F)c(F)c1)C(=O)O; NEtPhe(4-Me) = CCN[C@@H](Cc1ccc(C)cc1)C(=O)O; NMeGly(cPent) = CN[C@H](C(=O)O)C1CCCC1; NMeD = CN[C@@H](CC(=O)O)C(=O)O; NMeL = CN[C@@H](CC(C)C)C(=O)O; NMeA = CN[C@@H](C)C(=O)O; Ac5c = NC1(C(=O)O)CCCC1; Aze = O=C(O)[C@@H]1CCN1; Sar = CNCC(=O)O

Legend:
[1] = test system: Human pancreatic cancer cell line AsPC-1 (G12D mutation Kras); test: AsPC-1 cell growth inhibition (AsPC-1 CGI); assay type: cell-based; details: read-out: AsPC-1 cell growth inhibition, 50% growth inhibitory concentration (IC50 value); 96 hours, CellTiter-Glo, values classified in ranges
Description: Test compounds were serially dilated with dimethyl sulfoxide, and 200 nL was then dispensed to a U-bottom 96-well plate using Labcyte Echo. […] The cell suspension was dispensed to a. plate containing a test compound at 100 μL per well and incubated at 37° C. in a 5% carbon dioxide gas incubator. 96 hours later, 80 μL of CellTiter-Glo (Promega) was added to each well and fluorescence was measured.

[2] = test system: various cancer cell lines (Ras mutation or amplification); test: Measurement of cell growth inhibitory activity against various cancer cell lines (CellTiter-Glo); assay type: cell-based, human
Description: Various cancer cell lines used were purchased from commercial suppliers. […] The cell suspension and culture medium supplemented with serum were dispensed to a plate containing the test compounds at 40 μL (384 well plate) or 200 μL (96 well plate) per well and incubated in a carbon dioxide gas incubator. […] Six days or seven days after the start of cultivation, 20 μL of CellTiter-Glo (Promega) was added to each well and fluorescence was measured.

[3] = test system: non-small cell lung cancer cell line NC1-1441 with a KRAS mutation; test: In vivo antitumor activity, mouse xenograft model, NCI-H441; details: NCI-H441 (NSCLC) xenograft, 14 days
Text: (§1) Tumor growth inhibition rate (TGI %)=(1−TV/CV)×100

[4] = test system: large bowel carcinoma cell line LS 180; test: In vivo antitumor activity, mouse xenograft model, LS 180; details: LS 180 (Colon) xenograft, 7 days
Text: as §1

[5] = test system: large bowel carcinoma cell line LoVo; details: LoVo (Colon) xenograft, 10 mg/kg once daily, 10 days
Description: (§2) Each type of cell line was subcutaneously grafted into nude mice, which were randomized after tumor size reached 200 to 300 mm^3, and compound administration (once daily) was initiated (Day 0). The solvents used to dissolve the compounds were DMSO and Cremophor EL. […] From the tumor volume data on the last measurement day, the tumor growth inhibition rate (TGI %: Tumor Growth Inhibition %) was calculated using the following expressions.
(§3) tumor volume (mm^3):½×long diameter (mm)×short diameter (mm)×short diameter (mm)
(§4) amount of change in tumor volume (mm^3)=tumor volume after Day 0−tumor volume at Day 0 • TV: average value of amount of change in tumor volume in administered group • CV: average value of amount of change in tumor volume in non-administered group

[6] = test system: pancreatic cancer cell line MIA PaCa-2; details: MIA PaCa-2 (Pancreas) xenograft, 14 days
Description: as §2, §3, §4

[7] = test system: pancreatic cancer cell line KP4; details: KP4 (Pancreas) xenograft, 10 days
Description: as §2, §3, §4

[8] = test system: gastric cancer cell line MKN-1 with an amplified copy number of the KRAS gene; details: MKN1 (Stomach) xenograft, 10 days
Description: as §2, §3, §4

Compound CC[C@H](C)[C@@H]1NC(=O)[C@H](CC(C)C)N(C)C(=O)C[C@@H](C(=O)N(C)C)N(C)C(=O)[C@H](C2CCCC2)N(C)C(=O)C2(CCCC2)NC(=O)[C@@H]2CCCN2C(=O)[C@H](CCc2cc(F)c(C(F)(F)F)c(F)c2)NC(=O)CN(C)C(=O)[C@H](Cc2ccc(C)cc2)N(CC)C(=O)[C@@H]2CCN2C(=O)[C@H](C)N(C)C1=O [Compound 1217, (5S,8S,11S,15S,18S,23aS,29S,35S,37aS)-8-((S)-sec-butyl)-18-cyclopentyl-29-(3,5-difluoro-4-(trifluoromethyl)phenethyl)-36-ethyl-1l-isobutyl-N,N,5,6,12,16,19,33-octamethyl-35-(4-methylbenzyl)-4,7,10,13,17,20,23,28,31,34,37-undecaoxotetratriacontahydro-2H,4H-spiro[azeto[2,1-u]pyrrolo[2,1-i][1,4,7,10,13,16,19,22,25,28,31]undecaazacyclotetratriacontine-21,1′-cyclopentane]-15-carboxamide] ([NMeL]I[NMeA][Aze][NEtPhe(4-Me)][Sar][hPhe(3,5-F2-4-CF3)]P[Ac5c][NMeGly(cPent)][NMeD]-NMe2; lactam N-11) has a pIC50 [1] of at least 7.70, a pIC50 ([2]; A549, NSCLC, KRAS G12S) of 9.52 and a pIC50 ([2]; AGS, Stomach, KRAS G12D) of 9.49. For the same compound, the pIC50 ([2]; AML-193, AML, NRAS G13V) was 7.93, the pIC50 ([2]; AsPC-1, Pancreas, KRAS G12D) was 9.06 and the pIC50 ([2]; C-643, Thyroid, HRAS G13R) was 8.49. For the same compound, the pIC50 ([2]; CFPAC-1, Pancreas, KRAS G12V) was 7.76, the pIC50 ([2]; COR-L23, NSCLC, KRAS Amp (G12V)) was 8.55 and the pIC50 ([2]; Calu-6, NSCLC, KRAS Q61K) was 7.36. For the same compound, the pIC50 ([2]; DLD-1, Colon, KRAS G13D) was 8.29, the pIC50 ([2]; DMS 53, SCLC, KRAS Amp) was 7.91 and the pIC50 ([2]; FAMPAC, Pancreas, KRAS G12V) was 8.68. For the same compound, the pIC50 ([2]; HCC-44, NSCLC, KRAS G12C) was 9.26, the pIC50 ([2]; HCC-1171, NSCLC, KRAS G12C) was 8.31 and the pIC50 ([2]; HCT-116, Colon, KRAS G13D) was 8.07. The pIC50 ([2]; HEC-50B, Endometrium, KRAS G12D) was 7.36, the pIC50 ([2]; HEC-151, Endometrium, NRAS G12D) was 8.62 and the pIC50 ([2]; HLG-1, NSCLC, KRAS G12V) was 8.48. It also gave a pIC50 ([2]; HPAC, Pancreas, KRAS G12D) of 8.66, a pIC50 ([2]; HuG1-N, Stomach, KRAS Amp) of 8.43 and a pIC50 ([2]; IPC-298, Skin, NRAS Q61L) of 7.63. For the same compound, the pIC50 ([2]; KE-39, Stomach, KRAS Amp) was 9.10, the pIC50 ([2]; KLE, Endometrium, KRAS Amp) was 6.77 and the pIC50 ([2]; KMM-1, Myeloma, NRAS G13D) was 8.07. It also gave a pIC50 ([2]; KP4, Pancreas, KRAS G12D) of 8.48, a pIC50 ([2]; KURAMOCHI, Ovary, KRAS Amp) of 8.93 and a pIC50 ([2]; LS 174T, Colon, KRAS G12D) of 8.37. It also gave a pIC50 ([2]; LS 180, Colon, KRAS G12D) of 9.08, a pIC50 ([2]; LS513, Colon, KRAS G12D) of 8.43 and a pIC50 ([2]; LoVo, Colon, KRAS G13D) of 8.26. For the same compound, the pIC50 ([2]; MIA PaCa-2, Pancreas, KRAS G12C) was 8.84, the pIC50 ([2]; MKN-1, Stomach, KRAS Amp) was 8.75 and the pIC50 ([2]; MOLT-4, ALL, NRAS G12C) was 6.76. For the same compound, the pIC50 ([2]; NCI-H23, NSCLC, KRAS G12C) was 8.41, the pIC50 ([2]; NCI-H358, NSCLC, KRAS G12C) was 8.81 and the pIC50 ([2]; NCI-H441, NSCLC, KRAS G12V) was 8.95. It also gave a pIC50 ([2]; NCI-H460, NSCLC, KRAS Q61H) of 8.38, a pIC50 ([2]; NCI-H929, Myeloma, NRAS G13D) of 8.01 and a pIC50 ([2]; NCI-H1373, NSCLC, KRAS G12C) of 8.63. For the same compound, the pIC50 ([2]; NCI-H1385, NSCLC, KRAS G12C) was 7.84, the pIC50 ([2]; NCI-H1792, NSCLC, KRAS G12C) was 9.07 and the pIC50 ([2]; NCI-H1944, NSCLC, KRAS G13D) was 8.60. It also gave a pIC50 ([2]; NCI-H2009, NSCLC, KRAS G12A) of 8.63, a pIC50 ([2]; NCI-H2030, NSCLC, KRAS G12C) of 8.39 and a pIC50 ([2]; NCI-H2122, NSCLC, KRAS G12C) of 9.10. For the same compound, the pIC50 ([2]; NOMO-1, AML, KRAS G13D) was 8.19, the pIC50 ([2]; PA-1, Ovary, NRAS G12D) was 8.62 and the pIC50 ([2]; PANC-1, Pancreas, KRAS G12D) was 7.35. For the same compound, the pIC50 ([2]; RERF-LC-Ad2, NSCLC, KRAS G12V) was 8.28, the pIC50 ([2]; SK-CO-1, Colon, KRAS G12V) was 9.31 and the pIC50 ([2]; SK-LU-1, NSCLC, KRAS G12D) was 7.59. For the same compound, the pIC50 ([2]; SK-MEL-30, Skin, NRAS Q61K) was 7.04, the pIC50 ([2]; SNU-1, Stomach, KRAS G12D) was 9.34 and the pIC50 ([2]; SW403, Colon, KRAS G12V) was 8.39. The pIC50 ([2]; SW480, Colon, KRAS G12V) was 8.37, the pIC50 ([2]; T.T, Esophageal, KRAS Amp) was 8.25 and the pIC50 ([2]; TYK-nu, Ovary, NRAS G12D, Q61K) was 8.94. For the same compound, the pIC50 ([2]; UM-UC-3, Bladder, KRAS G12C) was 8.68, the “TGI (%)” value ([3]; 3 mg/kg once daily) was 59% and the “TGI (%)” value ([3]; 5 mg/kg once daily) was 92%. The “TGI (%)” value ([3]; 10 mg/kg once daily) was 110%, the “TGI (%)” value ([4]; 3 mg/kg once daily) was 11% and the “TGI (%)” value ([4]; 5 mg/kg once daily) was 38%. For the same compound, the “TGI (%)” value ([4]; 10 mg/kg once daily) was 65%, the “TGI (%)” value [5] was 85% and the “TGI (%)” value ([6]; 3 mg/kg once daily) was 16%. For the same compound, the “TGI (%)” value ([6]; 5 mg/kg once daily) was 65%, the “TGI (%)” value ([6]; 10 mg/kg once daily) was 149% and the “TGI (%)” value ([7]; 5 mg/kg once daily) was 65%. For the same compound, the “TGI (%)” value ([7]; 10 mg/kg once daily) was 104%, the “TGI (%)” value ([8]; 5 mg/kg once daily) was 55% and the “TGI (%)” value ([8]; 10 mg/kg once daily) was 205%.
